Read-outs that look alike come from different tables or passages of the source.
Tests used:
serum free fatty acid = assay: Serum levels of free fatty acid in rats after oral administration (Table I); assay type: in vivo; conditions: for Serum level of free fatty acid (FFA): oral, n=6, nicotinic acid 20 mg/kg, S-nicotinate 62.2 mg/kg (equimolar)
Experimental: (§1) At the time specified in Table I, the rats were killed by pentobarbital (30 mg/kg, i.p.) anesthesia and blood was withdrawn by the carotid. The serum separated from the blood samples was assayed for free fatty acid (according to a variation of the Elphic method) and triglyceride (according to the enzyme method).

serum free fatty acids = assay: Serum free fatty acids in alcoholic fatty liver rats (Table III); assay type: in vivo, male Sprague-Dawly rats; conditions: 0.1 mmole/kg/day for five days, n=6
Experimental: (§2) The effects of S-nicotinate were confirmed by an experiment in which alcoholic fatty liver rats were used according to the method described by A. Hosein et al., Biochemical Pharmacology, 24, page 1859, 1975.
(§3) In this experiment, male Sprague-Dawly rats, age 6 weeks, were treated as follows. The rats received 10 ml of 40% ethanol solution per kg of body weight for 3 days (at 10:00 AM on the day of sacrifice and at 4:00 PM on the other days) by gastric intubation. S-nicotinate was suspended in 0.5 (v/v)% Tween 80 aqueous solution and administered for five days (at 9:00 AM) including the day of sacrifice. After sacrificing the rats (at 1:00 PM), the total cholesterol was measured according to the Bennie Zak method (American Journal of Clinical Pathology, 27, page 583, 1957) and free fatty acid was measured by the method described by K. Itaya et al., Journal of Lipid Research, 6, page 16, 1965.

serum cholesterol = assay: Serum cholesterol in alcoholic fatty liver rats (Table III); assay type: in vivo, male Sprague-Dawly rats; conditions: 0.1 mmole/kg/day for five days, n=6
Experimental: as §2, §3

serum triglyceride = assay: Serum levels of triglyceride in rats after oral administration (Table I); assay type: in vivo; conditions: for Serum level of triglyceride (TG): oral, n=6, nicotinic acid 20 mg/kg, S-nicotinate 62.2 mg/kg (equimolar)
Experimental: as §1

[1] = Acute toxicity in mice (Table IV); conditions: mouse, in vivo
Experimental: The acute toxicity test was conducted as follows. STD ddY strain mice, weight male 17.2-20.5 g, female 17.5-19.7 g, were used. The mice were fed on forage and water freely and kept at constant environmental conditions (temperature 23±1° C., relative humidity 55±5%, and 12 hours light) before the test. Samples of S-nicotinate water solutions (0.3 ml/10 g of body weight) were administered to each group (n=10) of mice in order to achieve levels of 5 g/kg and 10 g/kg, respectively.

[2] = Plasma nicotinic acid levels in rats after oral administration (Table II)
Source text: (§4) On the other hand, upon oral administration of each compound, i.e., nicotinic acid and S-nicotinate to groups of rats, the plasma nicotinic acid levels in the rats were studied. […] The other experimental conditions were the same as those described above.

[3] = rat, in vivo, po
Source text: as §4

in vivo = conditions: rat, po, 62.2 mg/kg
Source text: as §4

[4] = cited from earlier work
[5] = 30 min, * = significant difference from control
[6] = rats, compared with nicotinic acid

CC(C)(CO)C(O)C(=O)NCCC(=O)NCCSC(=O)c1cccnc1 (stereo not shown) [S-nicotinate, 2,4-dihydroxy-N-[2-((2-mercaptoethyl)carbamoyl)ethyl]-3,3-dimethylbutyramide S-nicotinate]
Serum level of free fatty acid (FFA) (serum free fatty acid; [5]): 0.13±0.01 mEq/1
Serum level of free fatty acid (FFA) (serum free fatty acid; 60 min): 0.13±0.01 mEq/1
Serum level of free fatty acid (FFA) (serum free fatty acid; 90 min): 0.15±0.03 mEq/l
Serum level of free fatty acid (FFA) (serum free fatty acid; 120 min): 0.20±0.04 mEq/l
Serum level of free fatty acid (FFA) (serum free fatty acid; 360 min): 0.46±0.05 mEq/l
Effect on serum level of free fatty acid, in words (serum free fatty acid; [6]): decreases serum levels of free fatty acid and triglyceride in rats as well as nicotinic acid does
Serum free fatty acids (serum free fatty acids): 236±21.33 μEq/l
Serum cholesterol (serum cholesterol): 79.0 ± 4.23 mg/dL
Serum level of triglyceride (TG) (serum triglyceride; [5]): 43.7 ± 5.7 mg/dL
Serum level of triglyceride (TG) (serum triglyceride; 60 min): 22.2 ± 1.1 mg/dL
Serum level of triglyceride (TG) (serum triglyceride; 90 min): 25.5 ± 3.3 mg/dL
Serum level of triglyceride (TG) (serum triglyceride; 120 min): 29.2 ± 1.6 mg/dL
Serum level of triglyceride (TG) (serum triglyceride; 360 min): 33.5 ± 8.0 mg/dL
Effect on serum level of triglyceride, in words (serum triglyceride; [6]): decreases serum levels of free fatty acid and triglyceride in rats as well as nicotinic acid does
LD50 ([1]; iv): 1600 mg/kg
LD50 ([1]; po): > 10000 mg/kg
Activity in maintaining a satisfactory level of free nicotinic acid in the blood, in words ([2]; S-nicotinate itself vs nicotinic acid, inferred from experimental results): has the same activity as nicotinic acid itself
Plasma nicotinic acid at 120 minutes, in words [3]: essentially disappeared
concentration at 0.5 h (in vivo): 5200 ± 300 ng/mL
concentration at 1 h (in vivo): 3300 ± 300 ng/mL
concentration at 1.5 h (in vivo): 700 ± 400 ng/mL

O=C(O)c1cccnc1 [nicotinic acid]
Serum level of free fatty acid (FFA) (serum free fatty acid; [5]): 0.19±0.09 mEq/1
Serum level of free fatty acid (FFA) (serum free fatty acid; 60 min): 0.12±0.01 mEq/1
Serum level of free fatty acid (FFA) (serum free fatty acid; 90 min): 0.13±0.02 mEq/l
Serum level of free fatty acid (FFA) (serum free fatty acid; 120 min): 0.23±0.07 mEq/l
Serum level of free fatty acid (FFA) (serum free fatty acid; 360 min): 0.49±0.04 mEq/l
Serum level of triglyceride (TG) (serum triglyceride; [5]): 35.0 ± 2.3 mg/dL
Serum level of triglyceride (TG) (serum triglyceride; 60 min): 18.0 ± 0.7 mg/dL
Serum level of triglyceride (TG) (serum triglyceride; 90 min): 21.2 ± 2.5 mg/dL
Serum level of triglyceride (TG) (serum triglyceride; 120 min): 26.2 ± 1.1 mg/dL
Serum level of triglyceride (TG) (serum triglyceride; 360 min): 32.5 ± 3.1 mg/dL
Plasma nicotinic acid level, in words ([2]; 10 mg/kg nicotinic acid, at 60 minutes): almost a trace amount or was not detectable
Plasma nicotinic acid level ([2]; 360 min, oral, nicotinic acid 20 mg/kg, S-nicotinate 62.2 mg/kg): 0 ± 0 µg/mL
Cmax at 0.5 h ([2]; rat, plasma, po, 10 mg/kg): 8300 ng/mL
Tmax ([2]; rat, plasma, po, 10 mg/kg): 30 min
concentration at 0.5 h ([2]; rat, plasma, po, 20 mg/kg): 42800 ± 1200 ng/mL
concentration at 1 h ([2]; rat, plasma, po, 20 mg/kg): 22200 ± 1600 ng/mL
concentration at 1.5 h ([2]; rat, plasma, po, 20 mg/kg): 6700 ± 1600 ng/mL
concentration at 2 h ([2]; rat, plasma, po, 20 mg/kg): 400 ± 300 ng/mL
Plasma nicotinic acid at 120 minutes, in words ([2]; rats, 120 min after oral administration): essentially disappeared
Rebound effect in the plasma nicotinic acid level ([2]; rats, compared with S-nicotinate): far larger rebound effect
Effect on blood lipids ([4]; cholesterol, triglycerides, phospholipids and free fatty acids in blood, well known): reduces the levels of lipids such as cholesterol, triglycerides, phospholipids and free fatty acids in blood
Side-effects at higher doses ([4]; clinical treatment, higher doses): flushing of the face, itching and gastrointestinal impediments
Nicotinic acid level in the blood, in words ([4]; clinical treatment, normal dosage levels): rapidly decreases
Vasodilator effect ([4]; well known): vasodilator effect

pantothenolnicotinate
Effect on blood cholesterol level ([4]; Japanese published patent specification No. 40-18109): able to decrease the blood cholesterol level
